One may read the IC50 as the concentration that inhibits the measured activity by half. Higher therefore signals a need for much substance.

The target of one data set is T1, tau protein (Homo sapiens, UniProt P10636).
T1 construct: BiFC fluorescent-protein fragments (type and halves not specified); expressed in transfected cells
Briefly: Tau-BiFC cell model, inhibition of Forskolin-induced tau protein aggregation. The data set is classed as cell-based. As to conditions: Forskolin 30 μM, 48 hours. Here is the method:
In order to select novel tau protein aggregation-inhibiting substances, tau-BiFC cell model, in which formation of tau oligomers in living cells is easily observed, was used. Tau-BiFC cells were aliquoted into a 384-well plate. On the next day, the cells were treated with each of the compounds prepared according to Examples 1 to 57 at concentrations of 1 μM, 3 μM, and 10 μM, together with Forskolin (at a treatment concentration of 30 μM), which is a compound inducing tau protein aggregation by activating tau phosphorylase PKA. After 48 hours, nuclei in the cells were stained using Hoechst (at a treatment concentration of 2 μg/mL), and BiFC fluorescence intensity was automatically measured using Operetta (PerkinElmer) to count stained nuclei in each well out of the entire well plate. The group treated only with Forskolin, which induces tau protein aggregation, was set to a reference point of a 100% tau protein-aggregated state, and the effects of the compounds were confirmed using the equation “BiFC fluorescence intensity due to compound synthesized according to embodiment of present invention/(fluorescence intensity of control group treated only with Forskolin inducing tau protein aggregation−fluorescence intensity of untreated control group)×100”. Furthermore, the degree of cytotoxicity induced by the newly synthesized compound was also measured based on the 100% cell viability of the group treated only with Forskolin as a reference, and the cytotoxicity value of each compound was calculated using the equation “(number of stained nuclei in group treated with compound/number of stained nuclei in group treated with Forskolin)×100”. Based on the treatment results, substances inhibiting intracellular tau protein aggregation were selected from a series of candidate groups showing a tau protein aggregation inhibition rate of 70% or more and cell viability of 100% at a compound treatment concentration of 10 μM or more.
In order to evaluate dose-dependent tau protein aggregation inhibition effects of the compounds selected according to Experimental Example 1 on tau protein aggregation, tau-BiFC cells were treated with the selected compounds at concentrations of 0.03 μM, […], 0.3 μM, 1 μM, 3 μM, 10 μM, and 30 μM, respectively, together with Forskolin (at a treatment concentration of 30 μM), which is a tau protein aggregation-inducing substance. After 48 hours, tau protein aggregation reaction and degrees of cytotoxicity were analyzed by observing images of the cells. IC50 and toxicity of the compounds were analyzed by way of nonlinear regression analysis of prism software (Graph Pad).

Another data set has as its target T2, CYP3A4 (Homo sapiens, UniProt P08684).
T2 construct: human liver microsomes (0.25 mg/mL); from tissue; host or cells: human liver microsomes
Briefly: Inhibitory effect on CYP coenzyme activity, human liver microsomes. The data set is classed as in vitro ADME. As to conditions: 10 μM compound, human liver microsomes 0.25 mg/mL, substrate midazolam, 15 minutes. How it is done: (§1) The inhibitory effects of the compounds prepared according to Examples 1 to 57 on CYP coenzyme activity were identified. Specifically, human liver microsomes (0.25 mg/mL), a 0.1 M phosphate buffer solution (pH 7.4), a substrate drug cocktail of five types of drug metabolism enzymes (50 μM phenacetin, 10 μM diclofenac, 100 μM S-mephenytoin, 5 μM dextromethorphan, and 2.5 μM midazolam), and the compound at a concentration of 0 μM or 10 μM were mixed and pre-cultured at 37° C. for 5 minutes, and then further cultured at 37° C. for 15 minutes together with an NADPH generation system solution added thereto. Thereafter, the reaction was terminated by adding an acetonitrile solution containing an internal standard material (terfenadine) and centrifuged for 5 minutes (14,000 rpm, 4° C.), and then a supernatant was injected into an LC-MS/MS system for simultaneous analysis of metabolites of the substrate drugs to thereby evaluate the inhibitory effects on drug metabolism.
(§2) Metabolites of each CYP coenzyme indicator drug generated through the reaction were analyzed using the Shimadzu Nexera XR system and TSQ Vantage (Thermo). In an HPLC column, Kinetex C18 (2.1 mm×100 mm, 2.6 μm, particle size; Phenomenex, USA) was used, and mobile phases were (A) distilled water containing 0.1% formic acid and (B) acetonitrile containing 0.1% formic acid, and a gradient program shown in Table 3 was applied thereto.
(§3) The generated metabolites were quantified using a multiple reaction monitoring (MRM) quantification mode, and Xcalibur (version 1.6.1) was used for data analysis. In order to express inhibitory effects of the novel compound prepared according to the examples of the present invention on CYP coenzyme activity, CYP coenzyme activities (%) with respect to the control group not treated with the compound are shown in Table 4 below.
Background: Liver microsomes are a subcellular fraction often used to study metabolism.

In another data set the target is T3, CYP1A2 (Homo sapiens, UniProt P05177).
T3 construct: human liver microsomes (0.25 mg/mL); from tissue; host or cells: human liver microsomes
T3 sequence (P05177 1-516): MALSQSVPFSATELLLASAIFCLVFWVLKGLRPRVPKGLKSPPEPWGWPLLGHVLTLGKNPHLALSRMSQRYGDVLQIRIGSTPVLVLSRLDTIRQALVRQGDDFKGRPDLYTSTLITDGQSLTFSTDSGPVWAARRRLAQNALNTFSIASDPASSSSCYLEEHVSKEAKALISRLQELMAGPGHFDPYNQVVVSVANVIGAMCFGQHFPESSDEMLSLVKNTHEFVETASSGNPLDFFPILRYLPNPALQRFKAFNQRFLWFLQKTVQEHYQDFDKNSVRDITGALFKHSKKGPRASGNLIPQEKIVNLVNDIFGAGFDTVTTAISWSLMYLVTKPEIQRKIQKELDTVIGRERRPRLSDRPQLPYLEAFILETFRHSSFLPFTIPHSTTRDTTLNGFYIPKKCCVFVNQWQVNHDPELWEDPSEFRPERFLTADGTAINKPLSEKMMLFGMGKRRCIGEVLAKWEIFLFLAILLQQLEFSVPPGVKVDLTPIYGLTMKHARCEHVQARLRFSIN
Described as above. As to conditions: 10 μM compound, human liver microsomes 0.25 mg/mL, substrate phenacetin, 15 minutes. The format is in vitro ADME. How it is done: as §1, §2, §3

In another data set the target is T4, CYP2D6 (Homo sapiens, UniProt P10635).
T4 construct: human liver microsomes (0.25 mg/mL); from tissue; host or cells: human liver microsomes
T4 sequence (P10635 whole entry): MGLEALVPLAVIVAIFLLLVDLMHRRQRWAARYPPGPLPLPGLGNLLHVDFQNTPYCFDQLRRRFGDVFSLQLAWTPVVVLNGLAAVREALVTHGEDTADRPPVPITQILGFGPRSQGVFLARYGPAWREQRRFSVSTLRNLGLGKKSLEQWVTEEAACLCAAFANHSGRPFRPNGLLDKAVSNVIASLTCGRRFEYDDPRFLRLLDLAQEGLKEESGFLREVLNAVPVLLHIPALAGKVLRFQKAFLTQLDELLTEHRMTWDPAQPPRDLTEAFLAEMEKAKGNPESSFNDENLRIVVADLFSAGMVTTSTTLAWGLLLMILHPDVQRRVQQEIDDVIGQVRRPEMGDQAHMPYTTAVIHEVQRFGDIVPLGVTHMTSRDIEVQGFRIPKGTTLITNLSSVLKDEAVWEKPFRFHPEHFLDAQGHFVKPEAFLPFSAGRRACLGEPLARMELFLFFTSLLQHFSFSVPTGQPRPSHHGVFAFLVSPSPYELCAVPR
The data set is described as above. The format is in vitro ADME. The conditions noted are these: 10 μM compound, human liver microsomes 0.25 mg/mL, substrate dextromethorphan, 15 minutes. How it is done:
as §1, §2, §3

A further data set concerns the target T5, CYP2C19 (Homo sapiens, UniProt P33261).
T5 construct: human liver microsomes (0.25 mg/mL); from tissue; host or cells: human liver microsomes
Described as above. The data set is classed as in vitro ADME. As to conditions: 10 μM compound, human liver microsomes 0.25 mg/mL, substrate S-mephenytoin, 15 minutes. How it is done:
as §1, §2, §3

Another data set has as its target T6, CYP2C9 (Homo sapiens, UniProt P11712).
T6 construct: human liver microsomes (0.25 mg/mL); from tissue; host or cells: human liver microsomes
The data set is described as above. The format is in vitro ADME. The conditions noted are these: 10 μM compound, human liver microsomes 0.25 mg/mL, substrate diclofenac, 15 minutes. How it is done: as §1, §2, §3

A further data set concerns Tau-BiFC cells. In words: Cell viability (stained nuclei count) in Tau-BiFC cells. The format is cell-based. The conditions noted are these: 10 μM compound, 48 hours; Forskolin-only group = 100% cell viability. Here is the method: In order to select novel tau protein aggregation-inhibiting substances, tau-BiFC cell model, in which formation of tau oligomers in living cells is easily observed, was used. Tau-BiFC cells were aliquoted into a 384-well plate. On the next day, the cells were treated with each of the compounds prepared according to Examples 1 to 57 at concentrations of 1 μM, 3 μM, and 10 μM, together with Forskolin (at a treatment concentration of 30 μM), which is a compound inducing tau protein aggregation by activating tau phosphorylase PKA. After 48 hours, nuclei in the cells were stained using Hoechst (at a treatment concentration of 2 μg/mL), and BiFC fluorescence intensity was automatically measured using Operetta (PerkinElmer) to count stained nuclei in each well out of the entire well plate. The group treated only with Forskolin, which induces tau protein aggregation, was set to a reference point of a 100% tau protein-aggregated state, and the effects of the compounds were confirmed using the equation “BiFC fluorescence intensity due to compound synthesized according to embodiment of present invention/(fluorescence intensity of control group treated only with Forskolin inducing tau protein aggregation−fluorescence intensity of untreated control group)×100”. Furthermore, the degree of cytotoxicity induced by the newly synthesized compound was also measured based on the 100% cell viability of the group treated only with Forskolin as a reference, and the cytotoxicity value of each compound was calculated using the equation “(number of stained nuclei in group treated with compound/number of stained nuclei in group treated with Forskolin)×100”. Based on the treatment results, substances inhibiting intracellular tau protein aggregation were selected from a series of candidate groups showing a tau protein aggregation inhibition rate of 70% or more and cell viability of 100% at a compound treatment concentration of 10 μM or more. […]

Each structure is given as a SMILES string.

T1 sequence (P10636 1-441 isoform P10636-8): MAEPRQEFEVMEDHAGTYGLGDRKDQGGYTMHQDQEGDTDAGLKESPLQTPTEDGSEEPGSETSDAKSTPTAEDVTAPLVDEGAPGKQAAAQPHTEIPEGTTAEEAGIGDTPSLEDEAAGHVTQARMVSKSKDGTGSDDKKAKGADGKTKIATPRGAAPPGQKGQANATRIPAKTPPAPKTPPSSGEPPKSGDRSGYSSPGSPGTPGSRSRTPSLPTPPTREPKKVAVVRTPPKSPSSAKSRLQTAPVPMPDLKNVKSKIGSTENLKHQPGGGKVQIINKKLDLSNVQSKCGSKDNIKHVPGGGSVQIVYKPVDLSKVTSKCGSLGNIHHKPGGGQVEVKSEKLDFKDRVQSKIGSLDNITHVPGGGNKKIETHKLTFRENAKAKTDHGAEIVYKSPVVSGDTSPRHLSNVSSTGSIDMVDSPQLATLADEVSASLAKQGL
T6 sequence (P11712 whole entry): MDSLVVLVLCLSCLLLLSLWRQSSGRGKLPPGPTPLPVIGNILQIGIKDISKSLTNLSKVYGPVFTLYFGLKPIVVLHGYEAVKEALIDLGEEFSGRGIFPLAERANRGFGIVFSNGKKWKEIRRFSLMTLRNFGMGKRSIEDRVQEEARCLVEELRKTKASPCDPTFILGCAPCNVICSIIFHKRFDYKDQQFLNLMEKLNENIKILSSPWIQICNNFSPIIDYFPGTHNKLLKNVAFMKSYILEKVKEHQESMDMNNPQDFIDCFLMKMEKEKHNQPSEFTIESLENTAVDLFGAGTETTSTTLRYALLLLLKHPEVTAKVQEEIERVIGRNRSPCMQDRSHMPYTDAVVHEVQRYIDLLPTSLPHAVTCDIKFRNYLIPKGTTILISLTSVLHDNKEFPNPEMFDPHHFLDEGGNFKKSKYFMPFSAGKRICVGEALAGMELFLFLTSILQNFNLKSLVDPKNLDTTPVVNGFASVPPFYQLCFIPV
T2 sequence (P08684 whole entry): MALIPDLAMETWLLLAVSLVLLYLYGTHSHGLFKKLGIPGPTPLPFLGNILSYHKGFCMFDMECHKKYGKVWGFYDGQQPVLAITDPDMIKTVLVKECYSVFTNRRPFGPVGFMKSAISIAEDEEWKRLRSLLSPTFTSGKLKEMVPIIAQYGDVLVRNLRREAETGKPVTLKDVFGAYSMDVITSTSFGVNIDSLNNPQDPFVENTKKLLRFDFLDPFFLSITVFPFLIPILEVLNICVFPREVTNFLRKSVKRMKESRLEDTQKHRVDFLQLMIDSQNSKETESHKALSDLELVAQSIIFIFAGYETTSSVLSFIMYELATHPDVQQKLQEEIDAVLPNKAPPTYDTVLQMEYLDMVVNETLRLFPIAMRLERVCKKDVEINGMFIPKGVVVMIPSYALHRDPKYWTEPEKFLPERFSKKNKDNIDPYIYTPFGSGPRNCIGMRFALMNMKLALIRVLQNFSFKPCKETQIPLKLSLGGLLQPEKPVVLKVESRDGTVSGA
T5 sequence (P33261 whole entry): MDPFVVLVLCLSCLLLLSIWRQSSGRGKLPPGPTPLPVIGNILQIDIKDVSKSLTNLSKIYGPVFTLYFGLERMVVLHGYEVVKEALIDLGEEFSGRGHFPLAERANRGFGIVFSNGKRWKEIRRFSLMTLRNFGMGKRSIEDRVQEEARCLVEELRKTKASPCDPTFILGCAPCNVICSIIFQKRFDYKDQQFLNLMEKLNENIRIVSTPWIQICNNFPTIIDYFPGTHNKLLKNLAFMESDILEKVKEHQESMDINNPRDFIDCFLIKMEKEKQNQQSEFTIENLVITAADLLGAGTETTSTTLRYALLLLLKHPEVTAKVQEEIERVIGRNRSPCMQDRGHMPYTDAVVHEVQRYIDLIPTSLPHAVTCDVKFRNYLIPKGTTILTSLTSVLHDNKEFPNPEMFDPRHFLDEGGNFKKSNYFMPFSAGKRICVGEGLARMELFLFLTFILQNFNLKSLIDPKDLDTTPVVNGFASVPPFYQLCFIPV

Regarding `Cc1cc(=O)n(C)c2ccc(NN=C(C#N)C#N)cc12` [Compound 27, (1,4-dimethyl-2-oxo-1,2-dihydroquinolin-6-yl)carbonohydrazonoyl dicyanide], the “Tau BiFC in cells Response (% @10 μM)” value at tau protein (10 μM compound, Forskolin-only group = 100% tau protein-aggregated state) is given as −41%. Also, the IC50 at tau protein (tau-BiFC cells) amounted to 10 nM. Further, the “CYP3A4 coenzyme activity (%) with respect to control group not treated” value on CYP3A4 came to 73.6%. The “CYP1A2 coenzyme activity (%) with respect to control group not treated” value on CYP1A2 was 58.7%. Besides, the “CYP2D6 coenzyme activity (%) with respect to control group not treated” value on CYP2D6 is 86.7%. For the same compound, the “CYP2C19 coenzyme activity (%) with respect to control group not treated” value on CYP2C19 came to 96.3%. Besides, the “CYP2C9 coenzyme activity (%) with respect to control group not treated” value on CYP2C9 was 33.6%. Also, in the data set with Tau-BiFC cells, the “Cell viability (% @10 μM)” value is listed as 115%.
